Test results published in paper PMC5349910, “Discovery of BPR1K871, a quinazoline based, multi-kinase inhibitor for the treatment of AML and solid tumors: Rational design, synthesis, in vitro and in vivo evaluation” (Oncotarget, 2016).
pEC50, pIC50: −log10 of the molar value. Entries after “also recorded” stand apart in the source; their conditions may differ. Read-outs that look alike come from different tables or passages of the source.

Experiments:
[1] = system: MV4-11 cells; assay: MTS cell viability assay, MV4-11; assay type: cell-based, human; conditions: MTS, 72 h, AML-FLT3-ITD (homozygous), supplement values ± SEM, read-out: MV4-11 EC50
Method: The MTS cell viability assay was conducted as previously described. The MOLM-13 human leukemia cell line was obtained from the German Resource Centre for Biological Material (DSMZ, Braunschweig, Germany); the MV4-11 cell line was purchased from the American Type Culture Collection (ATCC, Manassas, VA, USA). […] To determine cell viability after drug treatment, assay for MOLM-13 and MV4-11 was performed by seeding 10000 cells per well in a 96-well culture plate. […] After 16 h, cells were then treated with vehicle or various concentrations of compound in medium for 72 h. Viable cells were quantified using the MTS method (Promega, Madison, WI, USA) according to the manufacturer's recommended protocol. Results were determined by measuring the absorbance at 490 nm using a plate reader (Victor2; PerkinElmer, Shelton, CT, USA).

[2] = system: RS4-11 cells; assay: Anti-proliferative activity, RS4-11; assay type: cell-based; conditions: Homo sapiens, RS4-11; ALL-wt-FLT3 (homozygous); supplement values ± SEM; read-out: RS4-11 EC50
[3] = system: HCC827 cells; assay: Anti-proliferative activity, HCC827; assay type: cell-based; conditions: Homo sapiens, HCC827; NSCLC-EGFR L858R; supplement values ± SEM; read-out: HCC827 EC50
[4] = system: MESSA cells; assay: Anti-proliferative activity, MESSA; assay type: cell-based; conditions: Homo sapiens, MES-SA; Uterine Sarcoma
[5] = system: Hep 3B cells; assay: Anti-proliferative activity, Hep 3B; assay type: cell-based; conditions: Hep3B; Human Hepatoma
[6] = system: CL 1-5 cells; assay: Anti-proliferative activity, CL 1-5; assay type: cell-based; conditions: CL1-5; Human Lung Adenocarcinoma
[7] = system: FLT3 phosphorylation (pFLT3 at residue Y591); assay: Western blot, FLT3 phosphorylation in MV4-11 cells; assay type: cell-based, human; conditions: 2.0 h
Method: (§1) In order to understand the mode of action of BPR1K871, mechanistic studies in MV4-11 cell line using western blot analysis was carried out. MV4-11 cells were incubated with BPR1K871 in a dose-dependent manner for 2.0 h. Cell lysates were prepared and analyzed by immunoblotting for both FLT3 phosphorylation (pFLT3 at residue Y591) and AURKA phosphorylation (pAURKA at residue T288).
(§2) Western blot analysis was conducted as previously described. Primary antibodies against phospho-FLT3 (Tyr591) (#3461) and phospho-AURKA (Thr288) (#3079) were purchased from Cell Signaling Technology. The anti-FLT3 antibody (sc-480) and anti-AURKA antibody (07–648) were purchased from Santa Cruz Biotechnology and Upstate, respectively. The anti-β-actin rabbit polyclonal antibody (GTX110564) was purchased from GeneTex (CA, USA). The secondary antibodies horseradish peroxidase (HRP)-linked goat anti-rabbit IgG (111-035-003) were purchased from Jackson Immuno (West Grove, PA, USA). MV4-11 cells were incubated with compound BPR1K871 for 2.0 h at the indicated concentrations. Cell lysates were prepared and analyzed by immunoblotting. For AURKA analysis, the cell lysates were obtained from MV4-11 cells incubated for 16 h with 40 ngmL^-1 nocodazole, followed by drug treatment for 2.0 h at the indicated concentrations.

[8] = system: AURKA phosphorylation (pAURKA at residue T288); assay: Western blot, AURKA phosphorylation in MV4-11 cells; assay type: cell-based, human; conditions: nocodazole 16 h then drug 2.0 h
Method: as §1, §2

[9] = system: MV4-11 tumor xenograft; assay: MV4-11 subcutaneous xenograft model; assay type: in vivo; conditions: nude mice, iv 1, 3 or 10 mg/kg days 1–5 and 8–12; hydrochloride salt; p < 0.05
Method: Based on the potent in vitro anti-proliferative activity of BPR1K871, it was planned to investigate the in vivo efficacy. […] Subsequently, based on the PK study, we evaluated the acute toxicity of BPR1K871 in ICR mice (n = 3) by iv administration. […] Next, the antitumor activity of BPR1K871 was evaluated through IV route in MOLM-13 and MV4-11 xenograft models (Figure 5). For this, nude mice were inoculated subcutaneously with MOLM-13 and MV4-11 cells in the left flank. […] For MOLM-13 model, BPR1K871 was injected intravenously at 10 mg/kg daily for 5 days (on days 1–5); also BPR1K871 was intravenously administrated at 3 and 1 mg/kg once a day for two continuous weeks (on days 1–5 and 8–12). For MV4-11 model, BPR1K871 was intravenously administrated at 10, 3 and 1 mg/kg once a day for two continuous weeks (on days 1–5 and 8–12).

[10] = target: CYP 1A2 (Homo sapiens, UniProt P05177); assay: CYP inhibition assay, CYP 1A2; assay type: in vitro ADME
Chain of CYP 1A2 (P05177 whole entry): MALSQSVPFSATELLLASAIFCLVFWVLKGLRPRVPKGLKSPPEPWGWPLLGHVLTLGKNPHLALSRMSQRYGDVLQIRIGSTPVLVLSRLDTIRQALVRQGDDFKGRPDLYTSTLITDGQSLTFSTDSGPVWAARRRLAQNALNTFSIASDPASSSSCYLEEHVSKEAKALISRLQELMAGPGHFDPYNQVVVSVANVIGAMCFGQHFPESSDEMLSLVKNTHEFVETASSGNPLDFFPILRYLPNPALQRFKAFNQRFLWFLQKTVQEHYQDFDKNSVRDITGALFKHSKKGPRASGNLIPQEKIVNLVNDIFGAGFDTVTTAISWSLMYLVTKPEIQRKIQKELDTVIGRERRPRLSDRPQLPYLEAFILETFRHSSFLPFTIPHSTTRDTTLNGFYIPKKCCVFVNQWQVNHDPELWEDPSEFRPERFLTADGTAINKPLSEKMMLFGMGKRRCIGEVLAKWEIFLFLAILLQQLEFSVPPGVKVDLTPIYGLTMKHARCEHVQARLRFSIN

[11] = target: CYP 2D6 (Homo sapiens, UniProt P10635); assay: CYP inhibition assay, CYP 2D6; assay type: in vitro ADME
Chain of CYP 2D6 (P10635 whole entry): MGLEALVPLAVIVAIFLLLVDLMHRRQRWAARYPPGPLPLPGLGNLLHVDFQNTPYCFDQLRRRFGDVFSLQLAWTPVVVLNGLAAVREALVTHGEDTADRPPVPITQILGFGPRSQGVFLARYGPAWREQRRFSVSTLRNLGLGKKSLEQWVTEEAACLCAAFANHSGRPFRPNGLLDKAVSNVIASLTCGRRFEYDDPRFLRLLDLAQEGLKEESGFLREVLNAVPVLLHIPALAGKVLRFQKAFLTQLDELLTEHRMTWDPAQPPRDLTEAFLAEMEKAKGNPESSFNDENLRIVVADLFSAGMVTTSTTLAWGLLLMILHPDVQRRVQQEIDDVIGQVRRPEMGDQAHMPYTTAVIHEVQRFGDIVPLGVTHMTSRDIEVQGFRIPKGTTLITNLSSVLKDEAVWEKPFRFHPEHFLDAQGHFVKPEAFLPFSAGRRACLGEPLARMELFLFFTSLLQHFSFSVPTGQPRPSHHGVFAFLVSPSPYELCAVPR

[12] = target: CYP 3A4 (Homo sapiens, UniProt P08684); assay: CYP inhibition assay, CYP 3A4; assay type: in vitro ADME
Chain of CYP 3A4 (P08684 whole entry): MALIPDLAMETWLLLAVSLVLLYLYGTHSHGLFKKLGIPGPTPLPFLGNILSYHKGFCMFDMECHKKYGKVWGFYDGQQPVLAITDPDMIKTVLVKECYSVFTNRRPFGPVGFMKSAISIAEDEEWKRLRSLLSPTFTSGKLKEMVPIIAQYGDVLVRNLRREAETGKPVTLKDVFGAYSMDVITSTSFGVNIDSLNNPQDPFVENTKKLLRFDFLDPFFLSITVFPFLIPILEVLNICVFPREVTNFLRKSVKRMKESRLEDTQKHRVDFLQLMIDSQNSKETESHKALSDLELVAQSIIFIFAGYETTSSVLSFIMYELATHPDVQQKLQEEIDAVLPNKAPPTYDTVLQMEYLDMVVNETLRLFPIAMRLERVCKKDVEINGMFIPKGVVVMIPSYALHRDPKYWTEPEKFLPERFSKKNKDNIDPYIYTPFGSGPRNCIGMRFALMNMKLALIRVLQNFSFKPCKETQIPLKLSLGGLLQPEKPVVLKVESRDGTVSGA

[13] = target: CYP 2E1 (Homo sapiens, UniProt P05181); assay: CYP inhibition assay, CYP 2E1; assay type: in vitro ADME
Chain of CYP 2E1 (P05181 whole entry): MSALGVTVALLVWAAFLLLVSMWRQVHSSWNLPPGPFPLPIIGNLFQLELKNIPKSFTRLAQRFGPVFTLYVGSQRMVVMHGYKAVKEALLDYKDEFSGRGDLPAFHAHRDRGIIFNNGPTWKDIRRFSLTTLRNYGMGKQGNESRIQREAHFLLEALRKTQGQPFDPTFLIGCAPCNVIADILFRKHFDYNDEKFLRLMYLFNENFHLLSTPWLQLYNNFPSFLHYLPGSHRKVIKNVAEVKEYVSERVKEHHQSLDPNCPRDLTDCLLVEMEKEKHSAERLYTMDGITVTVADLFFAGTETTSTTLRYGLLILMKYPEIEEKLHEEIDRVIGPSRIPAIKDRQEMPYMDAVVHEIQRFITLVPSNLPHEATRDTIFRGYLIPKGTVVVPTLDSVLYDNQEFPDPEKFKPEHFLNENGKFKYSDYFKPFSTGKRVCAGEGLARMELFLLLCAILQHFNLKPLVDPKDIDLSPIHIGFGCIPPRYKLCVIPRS

[14] = target: AURKA (Homo sapiens, UniProt O14965); assay: KINOMEScan, AURKA; conditions: read-out: AURKA % control
Chain of AURKA (O14965 whole entry): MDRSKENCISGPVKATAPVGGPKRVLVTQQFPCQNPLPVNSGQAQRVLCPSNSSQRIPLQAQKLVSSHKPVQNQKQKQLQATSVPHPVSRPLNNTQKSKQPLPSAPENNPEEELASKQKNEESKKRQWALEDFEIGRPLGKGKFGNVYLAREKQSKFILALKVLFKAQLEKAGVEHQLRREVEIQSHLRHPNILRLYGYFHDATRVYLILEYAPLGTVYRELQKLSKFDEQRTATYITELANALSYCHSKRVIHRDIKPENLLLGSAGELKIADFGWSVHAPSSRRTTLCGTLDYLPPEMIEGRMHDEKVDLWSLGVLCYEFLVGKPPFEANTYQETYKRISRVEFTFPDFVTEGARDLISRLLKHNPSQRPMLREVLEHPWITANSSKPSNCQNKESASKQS

[15] = target: AURKC (Homo sapiens, UniProt Q9UQB9); assay: KINOMEScan, AURKC; conditions: read-out: AURKC % control
Chain of AURKC (Q9UQB9 whole entry): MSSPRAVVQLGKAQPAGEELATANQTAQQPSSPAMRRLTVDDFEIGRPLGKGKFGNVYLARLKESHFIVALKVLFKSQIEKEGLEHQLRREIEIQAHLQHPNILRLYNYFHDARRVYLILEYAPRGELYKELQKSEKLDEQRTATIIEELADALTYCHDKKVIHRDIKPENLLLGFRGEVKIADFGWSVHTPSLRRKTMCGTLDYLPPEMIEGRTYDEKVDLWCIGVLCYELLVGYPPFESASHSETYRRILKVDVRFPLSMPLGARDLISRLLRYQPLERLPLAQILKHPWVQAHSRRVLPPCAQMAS

[16] = system: FLT3^ITD; assay: KINOMEScan, FLT3 ITD; conditions: 1000 nM
[17] = target: KIT^L576P (Homo sapiens, UniProt P10721, L576P); assay: KINOMEScan, KIT L576P; conditions: read-out: KIT^L576P % control
Chain of KIT^L576P (P10721 26-976 L576P): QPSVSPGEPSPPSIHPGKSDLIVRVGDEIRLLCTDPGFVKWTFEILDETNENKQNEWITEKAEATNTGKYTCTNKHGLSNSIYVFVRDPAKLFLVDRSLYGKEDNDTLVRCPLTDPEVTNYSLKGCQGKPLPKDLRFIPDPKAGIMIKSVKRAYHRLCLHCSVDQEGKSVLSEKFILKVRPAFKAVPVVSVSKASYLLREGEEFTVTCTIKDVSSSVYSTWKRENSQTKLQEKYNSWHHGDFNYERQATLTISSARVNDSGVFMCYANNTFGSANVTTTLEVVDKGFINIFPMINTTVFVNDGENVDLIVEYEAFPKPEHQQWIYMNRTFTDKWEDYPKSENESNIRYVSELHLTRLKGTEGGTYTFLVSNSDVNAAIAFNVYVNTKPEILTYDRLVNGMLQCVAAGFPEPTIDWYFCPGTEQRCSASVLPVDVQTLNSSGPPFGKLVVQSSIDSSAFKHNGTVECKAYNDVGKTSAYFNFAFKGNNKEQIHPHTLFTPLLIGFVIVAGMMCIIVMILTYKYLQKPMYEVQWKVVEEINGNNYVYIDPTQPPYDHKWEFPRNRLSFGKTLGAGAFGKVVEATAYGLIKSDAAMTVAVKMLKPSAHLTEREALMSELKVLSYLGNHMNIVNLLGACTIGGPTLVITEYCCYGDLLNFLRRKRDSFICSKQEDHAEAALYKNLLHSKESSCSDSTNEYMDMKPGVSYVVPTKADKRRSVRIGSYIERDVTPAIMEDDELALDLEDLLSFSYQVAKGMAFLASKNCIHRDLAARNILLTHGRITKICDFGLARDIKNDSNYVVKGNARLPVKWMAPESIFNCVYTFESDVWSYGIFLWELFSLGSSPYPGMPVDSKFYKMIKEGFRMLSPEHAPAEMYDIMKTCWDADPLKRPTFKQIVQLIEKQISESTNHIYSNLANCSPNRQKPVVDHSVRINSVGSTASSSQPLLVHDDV

[18] = target: FLT3^K663Q (Homo sapiens, UniProt P36888, K663Q); assay: KINOMEScan, FLT3 K663Q; conditions: read-out: FLT3^K663Q % control

Structure (SMILES): CN(C)CCCOc1ccc2c(NCCc3cnc(NC(=O)Nc4cccc(Cl)c4)s3)ncnc2c1 [BPR1K871, 1-(3-Chlorophenyl)-3-(5-(2-((7-(3-(dimethylamino)propoxy)quinazolin-4-yl)amino)ethyl)thiazol-2-yl)urea]
- pEC50 ([1]; Homo sapiens, MV4-11, 72 h): ~8.30
- pEC50 ([1]; listed as 10 (BPR1K871)): 8.40
- pEC50 [2]: 7.96
- pEC50 [3]: 6.59
- pEC50 [4]: 6.67
- pEC50 [5]: 5.61
- pEC50 [6]: 5.86
- concentration that completely inhibited formation of pFLT3 (Tyr591) [7]: 2 nM
- concentration that completely inhibited formation of pAURKA (Thr288) [8]: 100 nM
- growth / volume of MV4-11 tumor xenograft vs vehicle [9]: significantly reduced; also recorded: inhibited
- pIC50 [10]: < 5.40
- pIC50 [11]: < 5.40
- pIC50 [12]: < 5.40
- pIC50 [13]: < 5.40
- remaining binding at 1 µM [14]: 0%
- remaining binding at 1 µM [15]: 3.3%
- FLT3^ITD % control [16]: < 5.2 % control
- remaining binding at 1 µM [17]: < 4%
- remaining binding at 1 µM [18]: < 5.2%
